Measured values as given in paper PMC5537347, “A short D-enantiomeric antimicrobial peptide with potent immunomodulatory and antibiofilm activity against multidrug-resistant Pseudomonas aeruginosa and Acinetobacter baumannii” (Scientific Reports, 2017).
In brackets after ≈: the same amount, converted by molar mass. Where two headings read alike, the source gives them in different places.

Experiments:
[1] = tested on: P. aeruginosa and A. baumannii isolates
Description: (§1) The broth microdilution technique was utilized to assess the MIC of designed peptides according to the guidelines of the Clinical and Laboratory Standards Institute (CLSI)[37].

[2] = tested on: colistin-resistant P. aeruginosa isolated from cystic fibrosis patients
Description: as §1

[3] = tested on: human keratinocytes (HaCaT cells); assay: Cytotoxicity, MTS assay; conditions: for EC50: 24 h
Experimental: (§2) A significant limitation for translating AMPs into clinical applications is their toxicity to host (mammalian) cells. Herein, we evaluated the cytotoxic effects of our peptide constructs against murine macrophages (J774.1A) and human keratinocytes (HaCaT cells), via the MTS assay.
(§3) The peptides were assayed for potential in vitro toxicity against human keratinocytes (HaCaT) and murine macrophage cells (J774A.1), as described before, with the following modifications. Cells were treated with peptides at different concentrations for 24 hours. The therapeutic index of the peptides was calculated as the ratio of mammalian EC50 (the concentration of peptide that inhibited growth of 50% of the mammalian cells) to the MIC50 of peptides against bacteria.

[4] = tested on: murine macrophages (J774.1A); assay: Cytotoxicity, MTS assay; conditions: for EC50: 24 h
Experimental: as §2, §3

human red blood cells = assay: Hemolysis assay; format: cell-based; conditions: for HC50: red cells of human
Experimental: Next, we assessed the hemolytic activity of the peptides on human red blood cells (RBCs).
Peptides were assayed for hemolytic activity against human red blood cells, as described previously.

[5] = tested on: intracellular A. baumannii ATCC 19606; format: cell-based; conditions: ATCC 19606, 24 h, 8
Experimental: (§4) Figure 2 Intracellular antibacterial activity of peptides in infected murine macrophage cells (J774A.1). […] Statistical analysis was calculated using one-way ANOVA, with post hoc Tukey’s multiple comparisons test. P < 0.05 was considered significant. One asterisk (*) indicates significance from the negative control. Results are expressed as means from three biological replicates ± standard deviation.
(§5) In order to assess the peptides’ ability to kill intracellular bacteria, murine macrophages (J774A.1) were infected, as described in previous studies[31]–[33], [42], [48]–[51]. Briefly, J774A.1 cells were seeded and incubated as described above for the toxicity assessment. Following incubation, cells were infected with either P. aeruginosa PAO1 or A. baumannii ATCC 19606 (multiplicity of infection 100:1) in DMEM + 10% FBS for two hours. After infection, the wells were washed with 200 µL of media containing gentamicin (50 µg/ml) and further incubated for 30 minutes with gentamicin to kill extracellular bacteria. […] Medium alone was used as a negative control. After incubation, the media was aspirated and washed twice with PBS to remove any residual test agent. Next, 100 µL of PBS containing 0.01% triton X-100 was added to lyse the J774 cells. Subsequently, bacteria were diluted and plated on TSA plates. Plates were incubated at 37 °C for 16 hours. After incubation, bacteria were enumerated and analyzed. The experiment was repeated twice. The average percent reduction of bacterial growth for each treatment regimen has been reported.

[6] = tested on: intracellular P. aeruginosa PAO1; format: cell-based; conditions: PAO1, 24 h, 8
Experimental: as §4, §5

[7] = tested on: C. elegans strain glp-4;sek 1; assay: Toxicity of peptides in uninfected C. elegans; format: in vivo, Caenorhabditis elegans; conditions: worms grown four days with peptide; D-RR4 and colistin at 8 × MIC
Experimental: To test the efficacy of the synthetic peptides to protect against infections in vivo, we utilized a C. elegans model of bacterial infection. This model has been used extensively for early-stage evaluation of promising antimicrobials, [35], [36]. Initially, the lethal dose of D-RR4 against uninfected nematodes was determined.
(A) Evaluation of toxicity of peptides in Caenorhabditis elegans. C. elegans strain glp-4;sek 1 was grown for four days in the presence of peptides at different concentrations. Worms were monitored daily and the live worms were counted. Results are expressed as a Kaplan-Meier survival curve. (B) Evaluation of antimicrobial activity of peptides to reduce the bacterial CFU inside infected Caenorhabditis elegans. C. elegans strain glp-4; sek 1 were infected with P. aeruginosa PAO1, colistin-resistant P. aeruginosa 1109, or A. baumannii ATCC BAA-1605. […] After treatment, worms were lysed and bacteria were counted. One asterisk (*) indicates significant difference with the negative control. Two asterisks (**) indicates significant difference with the monotherapy treatment (P < 0.05). Results are expressed as means from three biological replicates ± standard deviation. (C) Efficacy of peptides in a Caenorhabditis elegans model of bacterial infection. […] Worms were monitored daily and the live worms were counted. Results are expressed as a Kaplan-Meier survival curve. C. elegans receiving no treatment served as a negative control.

A. baumannii = format: cell-based
P. aeruginosa PAO1 [8] = assay: Inner (cytoplasmic) membrane permeabilization assay (propidium iodide); format: cell-based; conditions: D-RR4 5 × and 10 × MIC, LL-37 10 × MIC
Experimental: Damage of the bacterial inner (cytoplasmic) membrane by peptides was monitored by measuring the fluorescence intensity of P. aeruginosa PAO1 combined with propidium iodide and then subsequently treated with D-RR4.
Damage of the bacterial inner (cytoplasmic) membrane after exposure to peptides was evaluated using propidium iodide, as described elsewhere[47].
Data are presented as means ± standard error of the means
indicated by propidium iodide fluorescence.
Each experiment was performed in duplicate, and the
values represent means ± standard deviation.

P. aeruginosa PAO1 [9] = assay: MIC after treatment with proteases; format: cell-based; conditions: 50 mM Tris-HCl pH 7.4, 37 °C, four hours
Experimental: To examine the ability of peptides to resist proteolytic digestion by mammalian and bacterial proteases, RR4 and D-RR4 were incubated with trypsin or proteinase K at a molar ratio of 500: 1 (peptide: enzyme), respectively, in digestion buffer (50 mM Tris–HCl, pH 7.4) at 37 °C for four hours, as described previously.

[10] = tested on: A. baumannii ATCC BAA-1605 biofilm; assay: Disruption of established biofilms, microtiter dish crystal violet assay; format: cell-based; conditions: mature (24 hour) biofilm
Experimental: (§6) Figure 1 Efficacy of peptides on established biofilms of P. aeruginosa PAO1 and A. baumannii ATCC BAA-1605. […] After incubation, wells were washed and biofilms were stained with 0.5% (w/v) crystal violet for 30 minutes. The dye was solubilized with ethanol (95%) and the optical density (595 nm) of the biofilm mass was measured. Experiments were repeated twice independently and the average values are reported.
(§7) To examine the peptides’ ability to disrupt bacterial biofilms, the microtiter dish biofilm formation assay was employed[41]–[43].

[11] = tested on: P. aeruginosa PAO1 biofilm; assay: as above; format: cell-based; conditions: for biofilm mass disrupted: mature (24 hour) biofilm, 24 hours at 37 °C, crystal violet OD 595 nm
Experimental: as §6, §7

[12] = colistin-resistant isolated from cystic fibrosis patients
[13] = colistin-resistant isolates of Table 3

## CC[C@@H](C)[C@@H](NC(=O)[C@@H](CCCNC(=N)N)NC(=O)[C@@H](CCCNC(=N)N)NC(=O)[C@@H](CC(C)C)NC(=O)[C@@H](Cc1c[nH]c2ccccc12)NC(=O)[C@@H](C)NC(=O)[C@@H](CCCCN)NC(=O)[C@H](NC(=O)[C@@H](CCCNC(=N)N)NC(=O)[C@@H](CCCNC(=N)N)NC(=O)[C@@H](CC(C)C)NC(=O)[C@H](N)Cc1c[nH]c2ccccc12)[C@H](C)CC)C(=O)N[C@H](CCCCN)C(=O)N[C@H](C)C(N)=O [D-RR4]
[1]
  MIC50: 2 µM (≈ 3.73 µg/mL)
  MIC90: 4 µM (≈ 7.46 µg/mL)
  MIC against all tested bacterial strains: 2 to 8 µM
[2]; [12]
  MIC50: 4 µM (≈ 7.46 µg/mL)
  MIC90: 16 µM (≈ 29.8 µg/mL)
[3]
  EC50: 64 µM
[3]; EC50 (HaCaT) over MIC50, 512 µM used where no cytotoxicity at […]
  Therapeutic index (TI): 32
[4]
  EC50: 64 µM
[4]; EC50 (J774.1) over MIC50, 512 µM used where no cytotoxicity at […]
  Therapeutic index (TI): 32
Human red blood cells; HC50 over MIC50
  Therapeutic index (TI) RBCs: 128
Human red blood cells
  HC50: 256 µM
[5]
  intracellular bacteria killed: 100.00% ± 0.00
[6]
  intracellular bacteria killed: 96.00% ± 1.15
[7]
  toxicity to uninfected worms: not toxic

## CC[C@H](C)[C@H](NC(=O)[C@H](CCCCN)NC(=O)[C@H](CCC(=O)O)NC(=O)[C@H](CCCCN)NC(=O)[C@H](CO)NC(=O)[C@H](CCCCN)NC(=O)[C@H](CCCNC(=N)N)NC(=O)[C@H](Cc1ccccc1)NC(=O)[C@H](Cc1ccccc1)NC(=O)[C@H](CC(=O)O)NC(=O)CNC(=O)[C@H](CC(C)C)NC(=O)[C@@H](N)CC(C)C)C(=O)NCC(=O)N[C@@H](CCCCN)C(=O)N[C@@H](CCC(=O)O)C(=O)N[C@@H](Cc1ccccc1)C(=O)N[C@@H](CCCCN)C(=O)N[C@@H](CCCNC(=N)N)C(=O)N[C@H](C(=O)N[C@H](C(=O)N[C@@H](CCC(N)=O)C(=O)N[C@@H](CCCNC(=N)N)C(=O)N[C@H](C(=O)N[C@@H](CCCCN)C(=O)N[C@@H](CC(=O)O)C(=O)N[C@@H](Cc1ccccc1)C(=O)N[C@@H](CC(C)C)C(=O)N[C@@H](CCCNC(=N)N)C(=O)N[C@@H](CC(N)=O)C(=O)N[C@@H](CC(C)C)C(=O)N[C@H](C(=O)N1CCC[C@H]1C(=O)N[C@@H](CCCNC(=N)N)C(=O)N[C@H](C(=O)N[C@@H](CCC(=O)O)C(=O)N[C@@H](CO)C(=O)O)[C@@H](C)O)C(C)C)[C@@H](C)CC)C(C)C)[C@@H](C)CC [LL-37, reference compound]
A. baumannii; strain ATCC 19606
  MIC: 2 µM (≈ 8.99 µg/mL)
A. baumannii; strain ATCC BAA-747
  MIC: 8 µM (≈ 35.9 µg/mL)
A. baumannii; strain ATCC BAA-1605
  MIC: 4 µM (≈ 18 µg/mL)
A. baumannii; strain NR-9667
  MIC: 4 µM (≈ 18 µg/mL)
A. baumannii; strain NR-13374
  MIC: 4 µM (≈ 18 µg/mL)
A. baumannii; strain NR-13375
  MIC: 4 µM (≈ 18 µg/mL)
A. baumannii; strain NR-13382
  MIC: 4 µM (≈ 18 µg/mL)
A. baumannii; strain NR-17777
  MIC: 4 µM (≈ 18 µg/mL)
A. baumannii; strain NR-17778
  MIC: 4 µM (≈ 18 µg/mL)
A. baumannii; strain NR-17780
  MIC: 4 µM (≈ 18 µg/mL)
A. baumannii; strain NR-17783
  MIC: 4 µM (≈ 18 µg/mL)
A. baumannii; strain NR-17784
  MIC: 4 µM (≈ 18 µg/mL)
A. baumannii; strain NR-17785
  MIC: 4 µM (≈ 18 µg/mL)
A. baumannii; strain NR-17786
  MIC: 4 µM (≈ 18 µg/mL)
A. baumannii; strain NR-19298
  MIC: 2 µM (≈ 8.99 µg/mL)
A. baumannii; strain NR-19299
  MIC: 8 µM (≈ 35.9 µg/mL)
[1]; MIC that inhibited growth of 50% of all isolates (Table 2)
  MIC50: 4 µM (≈ 18 µg/mL)
[1]; MIC that inhibited growth of 90% of all isolates (Table 2)
  MIC90: 32 µM (≈ 144 µg/mL)
[2]; [13]
  MIC50: 64 µM (≈ 288 µg/mL)
  MIC90: >128 µM
[2]; strain 1015
  MIC: >128 µM
[2]; strain 1016
  MIC: >128 µM
[2]; strain 1017
  MIC: >128 µM
[2]; strain 1020
  MIC: 32 µM (≈ 144 µg/mL)
[2]; strain 1109
  MIC: 64 µM (≈ 288 µg/mL)
[2]; strain 1125
  MIC: 128 µM (≈ 575 µg/mL)
[2]; strain 1131
  MIC: 16 µM (≈ 71.9 µg/mL)
[2]; strain 1133
  MIC: 32 µM (≈ 144 µg/mL)
[2]; strain 1571
  MIC: 16 µM (≈ 71.9 µg/mL)
[2]; strain 1603
  MIC: 32 µM (≈ 144 µg/mL)
[2]; strain 16011
  MIC: >128 µM
P. aeruginosa PAO1 [8]
  propidium iodide fluorescence (inner membrane damage): rapid and significant increase in fluorescence

## CC[C@H](C)[C@H](NC(=O)[C@H](CCCNC(=N)N)NC(=O)[C@H](CCCNC(=N)N)NC(=O)[C@H](CC(C)C)NC(=O)[C@H](Cc1c[nH]c2ccccc12)NC(=O)[C@H](C)NC(=O)[C@H](CCCCN)NC(=O)[C@@H](NC(=O)[C@H](CCCNC(=N)N)NC(=O)[C@H](CCCNC(=N)N)NC(=O)[C@H](CC(C)C)NC(=O)[C@@H](N)Cc1c[nH]c2ccccc12)[C@@H](C)CC)C(=O)N[C@@H](CCCCN)C(=O)N[C@@H](C)C(=O)O [RR4]
[1]
  MIC50: 4 µM (≈ 7.47 µg/mL)
  MIC90: 8 µM (≈ 14.9 µg/mL)
[1]; MIC50 and MIC90
  improvement in the MIC over RR: 16 fold
[2]; [12]
  MIC50: 8 µM (≈ 14.9 µg/mL)
  MIC90: 32 µM (≈ 59.7 µg/mL)
P. aeruginosa PAO1 [9]; after Proteinase K 1:500 (peptide:enzyme 500:1)
  MIC: > 64 µM
P. aeruginosa PAO1 [9]; after Trypsin 1:500 (peptide:enzyme 500:1)
  MIC: > 64 µM
[3]
  EC50: 128 µM
[4]
  EC50: 64 µM
Human red blood cells
  Therapeutic index (TI) RBCs: 64
  HC50: 256 µM
[10]
  biofilm-disrupting activity: concentration-dependent activity
[11]; 0.5× to 1 × MIC, respectively
  biofilm mass reduced: 20–35%
[11]; 4 × MIC
  biofilm mass disrupted: more than 31%
[11]; 8 × MIC
  biofilm mass disrupted: > 39%
[11]; 16 × MIC
  biofilm mass disrupted: > 41%
[11]; 32 × MIC
  biofilm mass disrupted: > 61%
[5]
  intracellular bacteria killed: 25.00% ± 8.90
[6]
  intracellular bacteria killed: 14.60% ± 5.50
